Results from US20120225837A1, “MEDICINAL AGENT FOR DISEASE ASSOCIATED WITH EPSTEIN-BARR VIRUS, AND METHOD FOR SCREENING OF THE MEDICINAL AGENT” (Kyoto University, priority 2007, published 2012).
Read-outs that look alike come from different tables or passages of the source.

Legend:
B95a cells = test: MTT cytotoxic effect on EB virus infection cancer cells (B95a); type: cell-based; conditions: expression of TK +, MTT assay
Method: (§1) The drug sensitivity of 143B/EB virus-TK, 143B/hu-TK, 143B TK(−) cells and EB virus persistent infection cells was determined on the basis of the cytotoxicity of each drug. That is, cells (143B/EB virus-TK, 143B/hu-TK and 143B TK(−) cells: 5×10^4 cells/100 μl; EB virus persistent infection cells: 20×10^4 cells/100 μl) were added to 96-well flat-bottom culture plates containing 100 μl of various concentrations of each drug. After 5 days of culture, the number of surviving cells was determined by MTT [3-(4,5-dimethylthiazol-2-yl)-2,5-diphenyltetrazolium bromide] assay. The cytotoxicity of the test drugs is expressed in terms of a concentration (CC50) at which the cell viability was decreased to 50%.
(§2) The cytotoxic effect of the medicinal agent of the present invention on EB virus infection cancer cells such as NC37 cells was investigated by MTT assay. […] However, neither of them was effective in cells in which EB virus-TK gene had not been expressed.

Namalwa cells = test: MTT cytotoxic effect on EB virus infection cancer cells (Namalwa); type: cell-based; conditions: expression of TK −, MTT assay
Method: as §1, §2

143B/EB virus-TK cells = test: cells; conditions: read-out: CC50 143B/EB Virus-TK
Excerpt: (§3) At first, a primer was designed on the basis of the data base information of NCBI, followed by extracting DNA from B95a cells (J. Virol. 1990; 64(2): 700-5), and the TK gene of an EB virus was amplified by PCR method and cloned in the multicloning site of an expression plasmid vector pCI-neo (pCI-EB-TKneo). Similarly, human-TK gene was also amplified by PCR method and cloned (pCI-huTKneo). Whether the cloned gene fragment was a desired gene or not was judged by determining the base sequence.
(§4) Then, TK-defect human osteosarcoma cells (143B) was transfected by lipofection method (Proc. Natl. Acad. Sci. USA 1987 November; 84(21): 7413-7) with the plasmid vector capable of expressing EB virus-TK gene or the plasmid vector capable of expressing human-TK gene, namely, pCI-EB-TKneo or pCI-huTKneo, and cells having each plasmid introduced therein were selected by the use of neomycin.
as §1

[1] = MTT cytotoxicity assay, cell having human-TK gene introduced; type: cell-based; conditions: human
Excerpt: as §3, §4, §1

KAI3 cells = test: MTT assay on cells with a chronic active EB virus infectious disease; type: cell-based
Method: as §1
A chronic active EB virus infectious disease is an unfavorable infectious disease caused by infection of not B cells but natural killer T cells (NKT cells) with an EB virus. As such a chronic infection cell strain, KAI3 cells (Clin. Exp. Immunol. 1999 March; 115(3): 385-92) were purchased from Health Science Research Resources Bank, and the effect of the medicinal agent of the present invention on them was investigated by MTT assay. GCV was used as a control agent.

NC37 cells = test: MTT cytotoxic effect on EB virus infection cancer cells (NC37); type: cell-based; conditions: NC37, expression of TK +, MTT assay
Method: as §1, §2

HS-Sultan cells = test: MTT cytotoxic effect on EB virus infection cancer cells (HS-Sultan); type: cell-based; conditions: expression of TK −, MTT assay
Method: as §1, §2

Raji cells = test: MTT cytotoxic effect on EB virus infection cancer cells (Raji); type: cell-based; conditions: expression of TK −, MTT assay
Method: as §1, §2

EB virus = test: Acute infection of B lymphocytes with EB virus, EB virus DNA by real-time PCR; type: cell-based; conditions: B lymphocytes of a healthy person, cultured 2 weeks, PBMC#1287 and PBMC#5926, FIG. 2
Method: B lymphocytes were separated from the blood of a healthy person. The B lymphocytes were infected with an EB virus in the presence of the medicinal agent of the present invention and cultured for 2 weeks. Thereafter, the infected B cells were recovered and then washed, followed by extraction of DNA. The amount of EB virus DNA in the B lymphocytes was determined by real-time PCR and taken as a virus copy number.

143B/hu-TK cells = test: MTT cytotoxicity assay, cell having human-TK gene introduced; type: cell-based
Excerpt: as §3, §4, §1

[2] = MTT assay, 5 days of culture, read-out: CC50 143B/hu-TK

Cc1cn([C@@H]2S[C@H](CO)[C@@H](O)[C@@H]2F)c(=O)[nH]c1=O [Medicinal agent of the invention, 1-(2-deoxy-2-fluoro-4-thio-β-D-arabinofuranosyl)-5-methyluracil]
Cytotoxic effect on EB virus infection cancer cells (B95a cells): 2.2 µM | Cytotoxic effect on EB virus infection cancer cells (Namalwa cells): >100 µM | CC50 (143B/EB virus-TK cells; Homo sapiens, 143B, 120 h): 110 nM | CC50 at 5 days [1]: > 300 µM | Effect on cells with a chronic active EB virus infectious disease (KAI3 cells): 4.7 µM | Cytotoxic effect on EB virus infection cancer cells (NC37 cells): 2.1 µM | Cytotoxic effect on EB virus infection cancer cells (HS-Sultan cells): >100 µM | Cytotoxic effect on EB virus infection cancer cells (Raji cells): 22 µM | Amount of EB virus DNA in the B lymphocytes (virus copy number) (EB virus): reduces the amount of EB virus DNA in the B lymphocytes and inhibits new infection

O=c1[nH]c(=O)n([C@@H]2O[C@H](CO)[C@@H](O)[C@@H]2O)cc1C=CBr [BvaraU, 1-β-D-arabinofuranosyl-5-bromovinyluracil]
CC50 (143B/EB virus-TK cells; Homo sapiens, 143B, 120 h): > 200000 nM | CC50 at 5 days [1]: > 200 µM

Cc1cn(C2(C#N)C[C@H](O)[C@@H](CO)O2)c(=O)[nH]c1=O (stereo partly shown) [1′-CN-dT, 1-(C-cyano-2-deoxy-ribofuranosyl)thymine]
CC50 (143B/EB virus-TK cells; MTT assay, 5 days of culture): > 100000 nM | CC50 (143B/hu-TK cells): > 100000 nM

O=c1[nH]c(=O)n([C@H]2C[C@H](O)[C@@H](CO)O2)cc1C=CBr [BVDU, 5-bromovinyl-2′-deoxyuridine]
CC50 (143B/EB virus-TK cells; Homo sapiens, 143B, 120 h): 122000 nM | CC50 at 5 days [1, 2]: > 300 µM

Nc1nc2c(ncn2COCCO)c(=O)[nH]1 [ACV, acyclovir]
CC50 at 5 days [1]: > 100 µM

O=c1[nH]c(=O)n([C@H]2C[C@H](O)[C@@H](CO)O2)cc1F [5FdU, 5-fluoro-2′-deoxyuridine]
CC50 (143B/EB virus-TK cells; Homo sapiens, 143B, 120 h): 400 nM | CC50 at 5 days [1]: 0.27 µM

1-(2-deoxy-2-fluoro-4-thio-β-D-arabinofuranosyl)cytosine [4′-S-FMAC]
CC50 (143B/EB virus-TK cells; MTT assay, 5 days of culture): 66 nM | CC50 (143B/hu-TK cells; [2]): 40 nM

Nc1nc(O)c2ncn(COC(CO)CO)c2n1 [GCV, ganciclovir]
Cytotoxic effect on EB virus infection cancer cells (B95a cells): 36 µM | Cytotoxic effect on EB virus infection cancer cells (Namalwa cells): >100 µM | CC50 (143B/EB virus-TK cells; Homo sapiens, 143B, 120 h): > 100000 nM | CC50 at 5 days [1]: > 100 µM | Effect on cells with a chronic active EB virus infectious disease (KAI3 cells): 105 µM | Cytotoxic effect on EB virus infection cancer cells (NC37 cells): 27 µM | Cytotoxic effect on EB virus infection cancer cells (HS-Sultan cells): >100 µM | Cytotoxic effect on EB virus infection cancer cells (Raji cells): 55 µM
